Experimental data: patent publication US20070173539A1, “Use of malonomicin and analogs in fungicidal applications” (priority 2006, published 2007)

Tests used:
[1] = system: Puccinia recondita f. sp. tritici PUCCRT; test: Curative low volume test, wheat brown rust; format: in vivo; settings: low volume 300 L/ha; for PUCCRT 1DC percent disease control: curative 1 day; for PUCCRT 3DC percent disease control: curative 3 days
Septoria tritici SEPTTR = test: Curative low volume test, wheat leaf blotch; format: in vivo; settings: curative 3 days, low volume 300 L/ha
Experimental: Tomatoes and grapes were grown in a soil-less peat-based potting mixture (Metro-Mix 360) while wheat was propagated in a 50/50 mix of mineral soil and Metro-Mix 360.
The malonomicin sample (Compound I) used in the low volume foliar spray was prepared by dissolving the material in deionized water with the desired adjuvant concentration. (0.05 percent Spraymate X-77+0.05 percent PVA+0.1 percent ammonium sulfate+0.1 percent EDTA)
For low volume applications, compound was applied to plants at the spray volume of 300 L/ha using a track sprayer with an SS8003E spray nozzle and a spray pressure of 255 kPa with a boom height of 40 cm from test plants. For a control, the same mixture is sprayed without active ingredient (solvent control).
Curative tests (DC) were inoculated the designated day(s) prior to treatment application. Disease severity was assessed as the percentage of the total surface area of the sprayed leaves covered by disease. Percent disease control relative to the solvent control was then calculated. Phytotoxicity symptoms and severity, if present, were also recorded. Four replicate plants per treatment for low volume applications were used.
Wheat plants were inoculated using approximately 1×10^7 spores/mL. Distilled water was poured into inoculum plates and the spores were dislodged using a spatula. The spores and water were filtered through 2 layers of cheesecloth, and three drops of Tween 20 per 100 mL of solution were added as a wetter. Test plants were then placed in a walk-in dew room at 22° C., 99 percent RH for 24 hours, after which time the plants were sub-irrigated with Hoagland's solution for 30 minutes and then moved into a misting greenhouse system where they were lightly misted every 90 seconds for three days. When the three-day misting period was completed, the plants were moved to the dry area of the greenhouse and bottom-watered daily until disease was fully expressed on the solvent control (10-14 days in summer, 14-21 days in winter). During the fall and winter months, the addition of a cart hood was used post-dew room, until assessment, in order to enhance disease uniformity and expression.

Q: `NC[C@@H]1NC(=O)C(C(=O)CC(NC(=O)[C@@H](N)CO)(C(=O)O)C(=O)O)=C1O` [Compound I, {[(2S)-2-amino-3-hydroxypropanoyl]amino}{2-[(5S)-5-(aminomethyl)-4-hydroxy-2-oxo-2,5-dihydro-1H-pyrrol-3-yl]-2-oxoethyl}malonic acid] was tested. Which “PUCCRT 1DC percent disease control” value ([1]; 7.8 g ai/ha) did it give?
A: − (− = 0-29 percent control of plant disease)

Q: What about the “PUCCRT 1DC percent disease control” value ([1]; 15.6 g ai/ha) of the same compound?
A: − (− = 0-29 percent control of plant disease)

Q: What about the “PUCCRT 1DC percent disease control” value ([1]; 31.2 g ai/ha) of the same compound?
A: + (+ = 30-74 percent control of plant disease)

Q: And the “PUCCRT 1DC percent disease control” value ([1]; 62.5 g ai/ha)?
A: + (+ = 30-74 percent control of plant disease)

Q: What about the “PUCCRT 1DC percent disease control” value ([1]; 125 g ai/ha) of the same compound?
A: ++ (++ = 75-100 percent control)

Q: What about the “PUCCRT 1DC percent disease control” value ([1]; 250 g ai/ha) of the same compound?
A: ++ (++ = 75-100 percent control)

Q: What about the “PUCCRT 3DC percent disease control” value ([1]; 7.8 g ai/ha) of the same compound?
A: − (− = 0-29 percent control of plant disease)

Q: What about the “PUCCRT 3DC percent disease control” value ([1]; 15.6 g ai/ha) of the same compound?
A: + (+ = 30-74 percent control of plant disease)

Q: And the “PUCCRT 3DC percent disease control” value ([1]; 31.2 g ai/ha)?
A: ++ (++ = 75-100 percent control)

Q: What about the “PUCCRT 3DC percent disease control” value ([1]; 62.5 g ai/ha) of the same compound?
A: ++ (++ = 75-100 percent control)

Q: And the “PUCCRT 3DC percent disease control” value ([1]; 125 g ai/ha)?
A: ++ (++ = 75-100 percent control)

Q: And the “PUCCRT 3DC percent disease control” value ([1]; 250 g ai/ha)?
A: ++ (++ = 75-100 percent control)

Q: And the “SEPTTR 3DC percent disease control” value (Septoria tritici SEPTTR; 7.8 g ai/ha)?
A: ++ (++ = 75-100 percent control)

Q: What about the “SEPTTR 3DC percent disease control” value (Septoria tritici SEPTTR; 15.6 g ai/ha) of the same compound?
A: ++ (++ = 75-100 percent control)

Q: What about the “SEPTTR 3DC percent disease control” value (Septoria tritici SEPTTR; 31.2 g ai/ha) of the same compound?
A: ++ (++ = 75-100 percent control)

Q: And the “SEPTTR 3DC percent disease control” value (Septoria tritici SEPTTR; 62.5 g ai/ha)?
A: ++ (++ = 75-100 percent control)

Q: What about the “SEPTTR 3DC percent disease control” value (Septoria tritici SEPTTR; 125 g ai/ha) of the same compound?
A: ++ (++ = 75-100 percent control)

Q: What about the “SEPTTR 3DC percent disease control” value (Septoria tritici SEPTTR; 250 g ai/ha) of the same compound?
A: ++ (++ = 75-100 percent control)
